Experimental data as given in patent publication US20240199542A1, “SUBSTITUTED PYRROLIDIN-2-ONES, SALTS THEREOF AND THEIR USE AS HERBICIDALLY ACTIVE SUBSTANCES” (Bayer Aktiengesellschaft, priority 2021, published 2024).

Experiments:
Assay type in all cases: in vivo
[1] = tested on: Alopecurus myosuroides (ALOMY); assay: Herbicidal pre-emergence action; details: graded after ca. 3 weeks
Excerpt: (§1) Seeds of mono- and dicotyledonous weed plants and crop plants were sown, in plastic or organic planting pots, in sandy loam and covered with soil. The compounds according to the invention, formulated in the form of wettable powders (WP) or as emulsifiable concentrates (EC), were applied to the surface of the covering soil as aqueous suspension or emulsion, with the addition of 0.5% of an additive, at an application rate of 600 1 of water/ha (converted).
(§2) Following treatment, the pots were placed in a greenhouse and kept under optimum growth conditions for the test plants. The visual grading of the damage to the test plants was carried out after ca. 3 weeks in comparison to untreated controls (herbicidal effect in percent (%): 100% effect=plants have died off, 0% effect=as control plants).
(§3) Tables A1 to A16, below, show the effects of selected compounds of the general formula (I) according to table 1 on various harmful plants and an application rate corresponding to 1280 g/ha or lower obtained by the experimental procedure mentioned above.

[2] = tested on: Avena fatua (AVEFA); assay: Herbicidal pre-emergence action; details: graded after ca. 3 weeks
Excerpt: as §1, §2, §3

[3] = tested on: Echinochloa crus-galli (ECHCG); assay: Herbicidal pre-emergence action; details: 1280 g/ha, graded after ca. 3 weeks
Excerpt: as §1, §2, §3

[4] = tested on: Lolium multiflorum (LOLMU); assay: Herbicidal pre-emergence action; details: 1280 g/ha, graded after ca. 3 weeks
Excerpt: as §1, §2, §3

[5] = tested on: Polygonum convolvulus (POLCO); assay: Herbicidal pre-emergence action; details: 1280 g/ha, graded after ca. 3 weeks
Excerpt: as §1, §2, §3

[6] = tested on: Setaria viridis (SETVI); assay: Herbicidal pre-emergence action; details: 1280 g/ha, graded after ca. 3 weeks
Excerpt: as §1, §2, §3

[7] = tested on: Alopecurus myosuroides (ALOMY); assay: Herbicidal post-emergence action; details: 1280 g/ha, assessed after ca. 3 weeks
Excerpt: (§4) Seeds of mono- and dicotyledonous weed plants and crop plants were sown, in plastic or organic planting pots, in sandy loam, covered with soil and grown in a greenhouse under controlled growth conditions. 2 to 3 weeks after sowing, the test plants were sprayed in the single-leaf stage. The compounds according to the invention, formulated in form of wettable powders (WP) or as emulsifiable concentrates (EC), were sprayed onto the green plant parts as aqueous suspension or emulsion, with the addition of 0.5% of an additive, at an application rate of 600 1 of water/ha (converted). The test plants were placed in the greenhouse for ca. 3 weeks under optimum growth conditions, and then the effect of the preparations was assessed visually in comparison with untreated controls (herbicidal effect in percent (%): 100% effect=plants have died off, 0% effect=as control plants).
(§5) Tables B1 to B16 below show the effects of selected compounds of the general formula (I) according to table 1 on various harmful plants and an application rate corresponding to 1280 g/ha or 320 g/ha obtained by the experimental procedure mentioned above.

[8] = tested on: Avena fatua (AVEFA); assay: Herbicidal post-emergence action; details: 1280 g/ha, assessed after ca. 3 weeks
Excerpt: as §4, §5

[9] = tested on: Echinochloa crus-galli (ECHCG); assay: Herbicidal post-emergence action; details: assessed after ca. 3 weeks
Excerpt: as §4, §5

[10] = tested on: Polygonum convolvulus (POLCO); assay: Herbicidal post-emergence action; details: assessed after ca. 3 weeks
Excerpt: as §4, §5

[11] = tested on: Cyperus esculentus (CYPES); assay: Herbicidal pre-emergence action; details: graded after ca. 3 weeks
Excerpt: as §1, §2, §3

[12] = tested on: Veronica persica (VERPE); assay: Herbicidal pre-emergence action; details: 1280 g/ha, graded after ca. 3 weeks
Excerpt: as §1, §2, §3

[13] = tested on: Lolium multiflorum (LOLMU); assay: Herbicidal post-emergence action; details: assessed after ca. 3 weeks
Excerpt: as §4, §5

[14] = tested on: Setaria viridis (SETVI); assay: Herbicidal post-emergence action; details: 1280 g/ha, assessed after ca. 3 weeks
Excerpt: as §4, §5

Row | Compound | Pre-emergence activity against ALOMY ([1]; 1280 g/ha) | Pre-emergence activity against AVEFA ([2]; 1280 g/ha) | Pre-emergence activity against ECHCG [3] | Pre-emergence activity against LOLMU [4] | Pre-emergence activity against POLCO [5] | Pre-emergence activity against SETVI [6] | Post-emergence activity against ALOMY [7] | Post-emergence activity against AVEFA [8] | Post-emergence activity against ECHCG ([9]; 1280 g/ha) | Post-emergence activity against POLCO ([10]; 1280 g/ha) | Pre-emergence activity against CYPES ([11]; 1280 g/ha) | Pre-emergence activity against VERPE [12] | Post-emergence activity against LOLMU ([13]; 1280 g/ha) | Post-emergence activity against SETVI [14] | Pre-emergence activity against ALOMY ([1]; 320 g/ha) | Pre-emergence activity against AVEFA ([2]; 320 g/ha) | Pre-emergence activity against CYPES ([11]; 320 g/ha) | Post-emergence activity against ECHCG ([9]; 320 g/ha) | Post-emergence activity against LOLMU ([13]; 320 g/ha) | Post-emergence activity against POLCO ([10]; 320 g/ha)
1 | O=C(CC1CCC(=O)N1Cc1cccc(F)c1F)OC1CCCC1 (racemic) [Example I-017] | 90% | 100% | 90% | 80% | 80% | 90% | 80% | 90% | 90% | 80% |  |  |  |  |  |  |  |  |  | 
2 | CC(C)(C)COC(=O)CC1CCC(=O)N1Cc1cccc(F)c1F (racemic) [Example I-018] | 90% | 100% | 90% | 90% | 80% | 90% | 80% | 80% | 90% |  | 80% | 90% | 80% |  |  |  |  |  |  | 
3 | O=C(CC1CCC(=O)N1Cc1cccc(F)c1F)OCC1CC1 (racemic) [Example I-020] | 80% | 100% | 80% | 80% |  |  | 80% | 90% | 90% |  |  | 80% | 80% |  |  |  |  |  |  | 
4 | C#CCOC(=O)CC1CCC(=O)N1Cc1cccc(F)c1F (racemic) [Example I-023] | 90% | 100% | 80% | 80% |  | 90% | 80% | 80% | 90% |  | 80% | 80% | 80% | 80% |  |  |  |  |  | 
5 | C=CCCOC(=O)CC1CCC(=O)N1Cc1cccc(F)c1F (racemic) [Example I-026] | 90% | 100% | 90% | 90% |  | 80% | 80% | 90% | 80% | 80% | 90% |  | 80% |  |  |  |  |  |  | 
6 | O=C(CC1CCC(=O)N1Cc1cccc(F)c1F)OCCOc1ccccc1 (racemic) [Example I-027] |  |  |  |  |  |  |  |  |  |  |  |  |  |  | 80% | 90% | 80% | 90% | 80% | 80%
7 | CCCC(C)OC(=O)CC1CCC(=O)N1Cc1cccc(F)c1F (racemic) [Example I-028] | 80% | 100% | 80% | 90% |  | 80% | 80% | 80% | 80% |  | 80% | 80% | 80% |  |  |  |  |  |  | 
8 | CCC(C)OC(=O)CC1CCC(=O)N1Cc1cccc(F)c1F (racemic) [Example I-030] | 90% | 100% | 80% | 80% | 80% | 80% | 80% | 80% | 80% |  |  | 90% | 80% |  |  |  |  |  |  | 
